Results as given in the kinase profiling compilation of Christmann-Franck et al. (2016).

Columns and labels:
Test in all cases: radiometric filter-binding kinase assay, Kinaseprofiler
STK33 (human) = STK33 (human) (UniProt Q9BYT3); settings: ATP 155 µM
MAP2K7 (human) = MAP2K7 (human) (UniProt O14733); settings: ATP 10 µM
VRK2 (human) = VRK2 (human) (UniProt Q86Y07); settings: ATP 70 µM
ERBB4 (human) = ERBB4 (human) (UniProt Q15303); settings: ATP 15 µM
CDK1 CCNB1 (human) = CDK1 CCNB1 (human) (UniProt P06493+P14635); settings: ATP 45 µM
MINK1 (human) = MINK1 (human) (UniProt Q8N4C8); settings: ATP 185 µM
TAOK1 (human) = TAOK1 (human) (UniProt Q7L7X3); settings: ATP 10 µM
STK17A (human) = STK17A (human) (UniProt Q9UEE5); settings: ATP 10 µM
STK17A (human), sequence (Q9UEE5 whole entry, looked up): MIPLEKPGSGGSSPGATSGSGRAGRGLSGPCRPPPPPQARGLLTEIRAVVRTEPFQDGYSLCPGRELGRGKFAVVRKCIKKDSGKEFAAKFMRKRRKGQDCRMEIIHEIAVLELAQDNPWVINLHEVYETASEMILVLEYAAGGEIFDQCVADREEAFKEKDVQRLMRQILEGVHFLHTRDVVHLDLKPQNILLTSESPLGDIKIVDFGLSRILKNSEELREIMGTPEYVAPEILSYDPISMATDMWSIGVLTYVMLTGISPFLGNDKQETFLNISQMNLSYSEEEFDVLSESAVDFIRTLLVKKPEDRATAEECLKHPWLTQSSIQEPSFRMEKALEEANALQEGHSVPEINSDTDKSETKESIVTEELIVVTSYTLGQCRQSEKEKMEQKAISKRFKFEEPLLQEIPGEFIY

PLK1 (human) = PLK1 (human) (UniProt P53350); settings: ATP 70 µM
PRKCE (human) = PRKCE (human) (UniProt Q02156); settings: ATP 45 µM
ALK (human) = ALK (human) (UniProt Q9UM73); settings: ATP 200 µM
PRKCD (human) = PRKCD (human) (UniProt Q05655); settings: ATP 15 µM
PRKCD (human), sequence (Q05655 whole entry, looked up): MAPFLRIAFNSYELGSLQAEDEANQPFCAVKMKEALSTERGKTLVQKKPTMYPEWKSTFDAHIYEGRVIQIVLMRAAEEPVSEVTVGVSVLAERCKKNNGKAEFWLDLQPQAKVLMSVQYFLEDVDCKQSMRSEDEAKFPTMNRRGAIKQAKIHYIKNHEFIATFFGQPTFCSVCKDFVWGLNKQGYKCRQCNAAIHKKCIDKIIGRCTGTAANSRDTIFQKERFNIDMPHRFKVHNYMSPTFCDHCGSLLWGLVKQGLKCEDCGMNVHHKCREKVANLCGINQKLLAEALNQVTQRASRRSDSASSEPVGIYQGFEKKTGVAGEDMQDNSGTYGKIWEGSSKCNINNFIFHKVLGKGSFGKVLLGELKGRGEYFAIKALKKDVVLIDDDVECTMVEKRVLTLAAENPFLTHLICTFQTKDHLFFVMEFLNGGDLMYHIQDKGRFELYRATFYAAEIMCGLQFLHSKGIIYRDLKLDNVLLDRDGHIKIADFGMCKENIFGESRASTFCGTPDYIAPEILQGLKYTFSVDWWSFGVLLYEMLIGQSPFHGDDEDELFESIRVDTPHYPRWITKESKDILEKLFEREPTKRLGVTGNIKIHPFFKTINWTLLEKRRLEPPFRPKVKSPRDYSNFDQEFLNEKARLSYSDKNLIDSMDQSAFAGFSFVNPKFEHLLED

IGF1R (human) = IGF1R (human) (UniProt P08069); settings: compound 1.0 µM
FGFR2 (human) = FGFR2 (human) (UniProt P21802); settings: ATP 90 µM
CHEK1 (human) = CHEK1 (human) (UniProt O14757); settings: ATP 90 µM
PDGFRB (human) = PDGFRB (human) (UniProt P09619); settings: ATP 200 µM
MYLK (human) = MYLK (human) (UniProt Q15746); settings: ATP 70 µM
CHUK (human) = CHUK (human) (UniProt O15111); settings: ATP 10 µM
CHUK (human), sequence (O15111 whole entry, looked up): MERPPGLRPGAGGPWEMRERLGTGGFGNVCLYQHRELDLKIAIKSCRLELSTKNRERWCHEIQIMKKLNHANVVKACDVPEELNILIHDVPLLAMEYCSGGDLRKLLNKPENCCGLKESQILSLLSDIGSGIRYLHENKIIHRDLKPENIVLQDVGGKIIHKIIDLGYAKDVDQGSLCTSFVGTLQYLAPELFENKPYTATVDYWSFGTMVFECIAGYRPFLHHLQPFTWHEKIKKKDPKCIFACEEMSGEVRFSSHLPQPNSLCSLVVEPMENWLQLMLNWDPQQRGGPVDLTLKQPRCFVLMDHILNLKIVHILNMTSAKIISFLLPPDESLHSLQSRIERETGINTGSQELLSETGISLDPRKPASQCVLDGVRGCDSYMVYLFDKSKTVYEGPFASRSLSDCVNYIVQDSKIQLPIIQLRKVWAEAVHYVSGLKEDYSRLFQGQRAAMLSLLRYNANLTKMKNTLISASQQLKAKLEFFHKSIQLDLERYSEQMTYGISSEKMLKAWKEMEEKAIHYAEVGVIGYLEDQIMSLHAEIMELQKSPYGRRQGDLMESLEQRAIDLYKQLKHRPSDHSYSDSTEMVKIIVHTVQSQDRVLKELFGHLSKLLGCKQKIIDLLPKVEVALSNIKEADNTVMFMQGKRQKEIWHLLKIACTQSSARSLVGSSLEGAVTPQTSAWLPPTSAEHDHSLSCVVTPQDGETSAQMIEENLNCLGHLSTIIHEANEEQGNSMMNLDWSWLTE

MUSK (human) = MUSK (human) (UniProt O15146); settings: ATP 155 µM
INSR (human) = INSR (human) (UniProt P06213)
INSR (human), sequence (P06213 whole entry, looked up): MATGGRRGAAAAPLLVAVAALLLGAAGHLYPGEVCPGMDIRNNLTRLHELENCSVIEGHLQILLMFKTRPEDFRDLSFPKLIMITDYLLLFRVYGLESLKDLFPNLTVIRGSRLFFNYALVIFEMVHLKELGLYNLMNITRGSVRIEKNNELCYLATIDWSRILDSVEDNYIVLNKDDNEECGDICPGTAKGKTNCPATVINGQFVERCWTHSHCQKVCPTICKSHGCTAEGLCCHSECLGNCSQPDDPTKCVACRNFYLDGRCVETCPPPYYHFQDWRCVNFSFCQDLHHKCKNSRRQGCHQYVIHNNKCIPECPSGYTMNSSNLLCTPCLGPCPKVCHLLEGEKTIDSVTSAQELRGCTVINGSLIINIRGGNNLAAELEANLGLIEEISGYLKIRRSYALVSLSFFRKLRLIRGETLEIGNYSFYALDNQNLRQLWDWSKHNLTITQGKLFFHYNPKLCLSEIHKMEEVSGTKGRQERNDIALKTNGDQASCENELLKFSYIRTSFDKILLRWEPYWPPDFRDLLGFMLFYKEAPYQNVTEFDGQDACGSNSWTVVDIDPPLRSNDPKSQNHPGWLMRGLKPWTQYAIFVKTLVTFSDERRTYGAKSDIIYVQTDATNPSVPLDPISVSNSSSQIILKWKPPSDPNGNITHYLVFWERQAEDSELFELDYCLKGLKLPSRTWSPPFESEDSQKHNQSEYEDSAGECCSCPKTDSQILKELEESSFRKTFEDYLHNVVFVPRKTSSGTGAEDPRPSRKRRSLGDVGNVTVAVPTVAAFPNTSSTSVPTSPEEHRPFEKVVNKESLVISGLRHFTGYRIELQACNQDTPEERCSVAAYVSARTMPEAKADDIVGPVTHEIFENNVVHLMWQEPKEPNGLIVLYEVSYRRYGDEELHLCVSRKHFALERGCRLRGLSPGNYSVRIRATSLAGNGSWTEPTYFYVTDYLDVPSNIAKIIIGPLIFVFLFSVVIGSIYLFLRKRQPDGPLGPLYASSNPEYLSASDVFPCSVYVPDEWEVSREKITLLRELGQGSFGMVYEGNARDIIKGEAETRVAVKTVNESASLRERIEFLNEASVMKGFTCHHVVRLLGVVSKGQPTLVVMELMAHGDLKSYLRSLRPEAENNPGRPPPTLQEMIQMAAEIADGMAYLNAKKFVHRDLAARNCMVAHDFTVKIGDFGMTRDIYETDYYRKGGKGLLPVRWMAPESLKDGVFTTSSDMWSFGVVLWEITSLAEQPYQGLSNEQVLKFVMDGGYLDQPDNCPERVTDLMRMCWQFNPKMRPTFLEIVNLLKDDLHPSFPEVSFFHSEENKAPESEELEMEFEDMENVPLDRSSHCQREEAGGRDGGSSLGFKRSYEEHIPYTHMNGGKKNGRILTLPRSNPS

PRKCZ (human) = PRKCZ (human) (UniProt Q05513); settings: ATP 15 µM
KDR (human) = KDR (human) (UniProt P35968); settings: ATP 90 µM
GRK7 (human) = GRK7 (human) (UniProt Q8WTQ7); settings: ATP 15 µM
DAPK3 (human) = DAPK3 (human) (UniProt O43293); settings: ATP 15 µM
[1] = target: JAK2 JH1 catalytic (human) (UniProt O60674); settings: ATP 45 µM
RPS6KA2 KD1 KD2 (human) = RPS6KA2 KD1 KD2 (human) (UniProt Q15349); settings: ATP 10 µM
ABL1 (human) = ABL1 (human) (UniProt P00519); settings: ATP 10 µM
[2] = test system: SGK2 (human), Q9HBY8 [S416D]; settings: ATP 15 µM
FGFR4 (human) = FGFR4 (human) (UniProt P22455); settings: ATP 155 µM
LYN (human) = LYN (human) (UniProt P07948); settings: ATP 70 µM
MTOR (human) = MTOR (human) (UniProt P42345); settings: ATP 70 µM
[3] = test system: TEK (human), Q02763 [Q939H/Q940H]; settings: ATP 200 µM
TEK (human), Q02763 [Q939H/Q940H], sequence (Q02763 whole entry Q939H/Q940H, looked up): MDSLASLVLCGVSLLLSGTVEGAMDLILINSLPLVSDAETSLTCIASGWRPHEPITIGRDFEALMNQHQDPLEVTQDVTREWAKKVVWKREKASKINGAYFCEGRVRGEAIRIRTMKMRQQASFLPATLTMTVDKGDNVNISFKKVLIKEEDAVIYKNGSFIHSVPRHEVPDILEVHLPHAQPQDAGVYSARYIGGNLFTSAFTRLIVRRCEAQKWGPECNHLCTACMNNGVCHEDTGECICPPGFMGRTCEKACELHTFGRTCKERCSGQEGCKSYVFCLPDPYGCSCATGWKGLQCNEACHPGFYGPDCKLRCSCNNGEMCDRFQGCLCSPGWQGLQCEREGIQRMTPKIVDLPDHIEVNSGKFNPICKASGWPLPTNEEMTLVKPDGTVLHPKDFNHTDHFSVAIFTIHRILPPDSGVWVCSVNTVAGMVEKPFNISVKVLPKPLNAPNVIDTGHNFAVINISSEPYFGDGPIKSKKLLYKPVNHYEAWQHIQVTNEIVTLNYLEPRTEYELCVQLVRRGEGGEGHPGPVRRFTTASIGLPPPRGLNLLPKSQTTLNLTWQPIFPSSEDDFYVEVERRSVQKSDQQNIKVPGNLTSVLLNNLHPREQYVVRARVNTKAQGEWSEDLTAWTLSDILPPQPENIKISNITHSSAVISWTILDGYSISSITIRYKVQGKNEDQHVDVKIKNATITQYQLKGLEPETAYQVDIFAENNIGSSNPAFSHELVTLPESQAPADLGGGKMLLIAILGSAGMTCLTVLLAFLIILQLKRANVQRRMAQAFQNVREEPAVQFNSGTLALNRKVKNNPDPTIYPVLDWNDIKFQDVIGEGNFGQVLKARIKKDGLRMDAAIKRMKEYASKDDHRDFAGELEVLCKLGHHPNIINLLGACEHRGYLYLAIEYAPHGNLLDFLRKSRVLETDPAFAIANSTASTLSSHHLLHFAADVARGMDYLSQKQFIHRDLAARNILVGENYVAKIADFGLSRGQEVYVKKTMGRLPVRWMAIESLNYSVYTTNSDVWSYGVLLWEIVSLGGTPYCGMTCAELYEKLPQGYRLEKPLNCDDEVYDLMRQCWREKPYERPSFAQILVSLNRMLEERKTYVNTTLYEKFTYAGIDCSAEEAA

VRK2 (human), sequence (Q86Y07 whole entry, looked up): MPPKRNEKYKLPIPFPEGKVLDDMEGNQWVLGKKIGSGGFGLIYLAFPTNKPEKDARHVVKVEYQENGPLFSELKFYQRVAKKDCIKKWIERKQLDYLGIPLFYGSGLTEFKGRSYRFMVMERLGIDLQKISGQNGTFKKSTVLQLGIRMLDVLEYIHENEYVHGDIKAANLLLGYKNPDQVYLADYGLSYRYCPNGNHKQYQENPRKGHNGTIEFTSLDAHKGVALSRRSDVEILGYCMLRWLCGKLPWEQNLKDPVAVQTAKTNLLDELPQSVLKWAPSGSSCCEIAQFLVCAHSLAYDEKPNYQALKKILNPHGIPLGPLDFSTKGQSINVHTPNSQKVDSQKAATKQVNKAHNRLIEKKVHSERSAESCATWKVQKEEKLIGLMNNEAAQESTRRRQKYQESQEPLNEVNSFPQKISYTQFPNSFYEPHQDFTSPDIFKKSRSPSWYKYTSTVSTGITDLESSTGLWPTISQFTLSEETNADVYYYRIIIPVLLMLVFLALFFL

## O=C1c2ccccc2-c2n[nH]c3cccc1c23
STK33 (human); compound 1.0 µM
  residual activity: 61%
STK33 (human); compound 10.0 µM
  residual activity: 16%
MAP2K7 (human); compound 1.0 µM
  residual activity: 58%
MAP2K7 (human); compound 10.0 µM
  residual activity: 6%
VRK2 (human); compound 1.0 µM
  residual activity: 78%
VRK2 (human); compound 10.0 µM
  residual activity: 36%
ERBB4 (human); compound 1.0 µM
  residual activity: 104%
ERBB4 (human); compound 10.0 µM
  residual activity: 97%
CDK1 CCNB1 (human); compound 1.0 µM
  residual activity: 52%
CDK1 CCNB1 (human); compound 10.0 µM
  residual activity: 35%
MINK1 (human); compound 1.0 µM
  residual activity: 86%
MINK1 (human); compound 10.0 µM
  residual activity: 50%
TAOK1 (human); compound 1.0 µM
  residual activity: 69%
TAOK1 (human); compound 10.0 µM
  residual activity: 25%
STK17A (human); compound 1.0 µM
  residual activity: 6%
STK17A (human); compound 10.0 µM
  residual activity: 2%
PLK1 (human); compound 1.0 µM
  residual activity: 69%
PLK1 (human); compound 10.0 µM
  residual activity: 64%
PRKCE (human); compound 1.0 µM
  residual activity: 101%
PRKCE (human); compound 10.0 µM
  residual activity: 84%
ALK (human); compound 1.0 µM
  residual activity: 61%
ALK (human); compound 10.0 µM
  residual activity: 29%
PRKCD (human); compound 1.0 µM
  residual activity: 99%
PRKCD (human); compound 10.0 µM
  residual activity: 71%
IGF1R (human); ATP 45 µM
  residual activity: 92%
IGF1R (human); ATP 200 µM
  residual activity: 91%
FGFR2 (human); compound 1.0 µM
  residual activity: 52%
FGFR2 (human); compound 10.0 µM
  residual activity: 12%
CHEK1 (human); compound 1.0 µM
  residual activity: 72%
CHEK1 (human); compound 10.0 µM
  residual activity: 32%
PDGFRB (human); compound 1.0 µM
  residual activity: 99%
PDGFRB (human); compound 10.0 µM
  residual activity: 96%
MYLK (human); compound 1.0 µM
  residual activity: 29%
MYLK (human); compound 10.0 µM
  residual activity: 3%
CHUK (human); compound 1.0 µM
  residual activity: 57%
CHUK (human); compound 10.0 µM
  residual activity: 21%
MUSK (human); compound 1.0 µM
  residual activity: 60%
MUSK (human); compound 10.0 µM
  residual activity: 24%
INSR (human); compound 1.0 µM, ATP 45 µM
  residual activity: 70%
INSR (human); compound 1.0 µM, ATP 200 µM
  residual activity: 81%
INSR (human); compound 10.0 µM, ATP 45 µM
  residual activity: 26%
INSR (human); compound 10.0 µM, ATP 200 µM
  residual activity: 47%
PRKCZ (human); compound 1.0 µM
  residual activity: 110%
PRKCZ (human); compound 10.0 µM
  residual activity: 106%
KDR (human); compound 1.0 µM
  residual activity: 17%
KDR (human); compound 10.0 µM
  residual activity: 3%
GRK7 (human); compound 1.0 µM
  residual activity: 71%
GRK7 (human); compound 10.0 µM
  residual activity: 27%
DAPK3 (human); compound 1.0 µM
  residual activity: 87%
DAPK3 (human); compound 10.0 µM
  residual activity: 45%
[1]; compound 1.0 µM
  residual activity: 58%
[1]; compound 10.0 µM
  residual activity: 11%
RPS6KA2 KD1 KD2 (human); compound 1.0 µM
  residual activity: 58%
RPS6KA2 KD1 KD2 (human); compound 10.0 µM
  residual activity: 22%
ABL1 (human); compound 1.0 µM
  residual activity: 83%
ABL1 (human); compound 10.0 µM
  residual activity: 56%
[2]; compound 1.0 µM
  residual activity: 71%
[2]; compound 10.0 µM
  residual activity: 33%
FGFR4 (human); compound 1.0 µM
  residual activity: 110%
FGFR4 (human); compound 10.0 µM
  residual activity: 89%
LYN (human); compound 1.0 µM
  residual activity: 70%
LYN (human); compound 10.0 µM
  residual activity: 30%
MTOR (human); compound 1.0 µM
  residual activity: 104%
MTOR (human); compound 10.0 µM
  residual activity: 77%
[3]; compound 1.0 µM
  residual activity: 95%
[3]; compound 10.0 µM
  residual activity: 63%
